These results are taken from publication PMC5218480 (PLoS ONE, 2017).

Molecules are shown by their SMILES.

The assay deals with MV-4-11 cells. Briefly: Gene expression microarray analysis (Affymetrix PrimeView) and GSEA. The assay is classed as cell-based, human. The conditions noted are these: ProbeSet 11754607_s_at; LIST B.

Regarding `Nc1ccc(-c2cccs2)cc1NC(=O)c1ccc2c(c1)cc(C1CC1)n2CCN1CCOCC1` [ACY-1035], the “RFU, HSP90B1 /// MIR3652” value worked out at 2548.05 RFU.
